O=C(N[C@@H](CO)C(=O)O)OCc1ccccc1
solubility (mole fraction)
Details	283.15 K	288.15 K	293.15 K	298.15 K	303.15 K	308.15 K	313.15 K	318.15 K	323.15 K
in 2-butanone	0.0333	0.037	0.0404	0.0456	0.052	0.0604	0.0726	0.0946	0.115
in acetone	0.0708	0.0762	0.0835	0.0955	0.11	0.127	0.15	0.176	0.205
in acetonitrile	0.00705	0.00841	0.00993	0.0126	0.0161	0.0213	0.0276	0.0385	0.0625
in ethyl acetate	0.0143	0.0163	0.0189	0.0217	0.0257	0.0296	0.0353	0.0429	0.0541
in isobutanol	0.0221	0.0246	0.0296	0.0365	0.0443	0.0552	0.0665	0.0912	0.115
in isopropanol	0.0443	0.0505	0.0591	0.0707	0.0841	0.103	0.123	0.152	0.185
in methyl acetate	0.0215	0.0262	0.0318	0.0365	0.0418	0.0477	0.0536	0.0635	0.0804
in n-butanol	0.0279	0.0313	0.0388	0.0463	0.0562	0.067	0.0821	0.102	0.137
in n-pentanol	0.0265	0.0286	0.0331	0.039	0.0455	0.0542	0.0628	0.0854	0.112
in n-propanol	0.0496	0.0567	0.0645	0.0722	0.0838	0.0956	0.11	0.127	0.175
in sec-butanol	0.0335	0.0385	0.0471	0.0585	0.0715	0.0862	0.109	0.13	0.159
in water	0.00097	0.00116	0.00133	0.00165	0.002	0.00247	0.00309	0.00448	0.00737
